Source: patent US11814364B2, “Pyridine N-oxide derivatives useful as factor XIa inhibitors” (Janssen Pharmaceutica NV, priority 2021, dated 2023)
Like-named read-outs stand apart in the source and are kept apart here.

Experiments:
Factor XIa = Factor XIa (Homo sapiens, UniProt P03951); experiment: Factor XIa inhibition FLINT assay with fluorophore-quencher peptide substrate 5Fam-[…]-K5Tamra (end point EP or kinetic KIN reads); format: biochemical; settings: end point read at 30 min; read-out: FXIa (EP) IC50
Sequence of Factor XIa (P03951 388-625 limits assumed): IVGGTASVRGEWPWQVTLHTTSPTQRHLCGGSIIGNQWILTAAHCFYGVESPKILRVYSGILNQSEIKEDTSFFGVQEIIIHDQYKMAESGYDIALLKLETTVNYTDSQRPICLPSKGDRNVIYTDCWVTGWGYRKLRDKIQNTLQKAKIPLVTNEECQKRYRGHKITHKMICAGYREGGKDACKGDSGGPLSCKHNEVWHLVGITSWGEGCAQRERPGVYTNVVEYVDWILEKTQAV
Sequence of Factor XIa (P03951 19-387 partner limits assumed): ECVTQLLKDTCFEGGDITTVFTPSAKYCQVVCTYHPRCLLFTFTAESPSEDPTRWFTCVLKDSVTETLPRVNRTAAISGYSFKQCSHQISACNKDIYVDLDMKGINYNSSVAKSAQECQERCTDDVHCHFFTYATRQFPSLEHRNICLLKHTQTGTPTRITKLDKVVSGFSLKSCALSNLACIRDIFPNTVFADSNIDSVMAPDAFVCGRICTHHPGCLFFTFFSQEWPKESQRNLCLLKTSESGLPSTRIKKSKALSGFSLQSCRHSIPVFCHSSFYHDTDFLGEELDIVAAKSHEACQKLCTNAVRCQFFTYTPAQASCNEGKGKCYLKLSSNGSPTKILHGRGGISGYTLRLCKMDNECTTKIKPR
Excerpt: Factor XIa inhibition assay utilizing a fluorophore-quencher pair peptide substrate A fluorescence intensity (FLINT) based assay was used to monitor inhibition of Factor XIa. The peptide substrate, 5Fam-[…]-K5Tamra (purchased from New England Peptide) was chosen based on the FXI sequence. Conversion of zymogen FXI to its activated form, FXIa, occurs by proteolytic cleavage by […] at two sites, Arg146 and Arg180. The custom peptide used in this assay was based on the Arg146 cleavage site of FXI. The peptide substrate was designed with a fluorophore-quencher pair, where the fluorescence is quenched until FXIa cleaves the 8-mer peptide after the Arg residue.
Test compound(s) were run in an 11-point, 3-fold serial dilution with a final top compound concentration of 100 nM. Final DMSO in assay was 2%. FXIa was preincubated with compound for 30-minutes and then substrate was added to initiate the reaction. The assay was run with either end point (EP) reads at 30 min or kinetic (KIN) reads at 5 min intervals over 30 minutes. […] More specifically, the assay was run as follows: • 100 nL of 0.01 mM test compound was dispensed into black 384-well non-binding Greiner BioOne 784900 plate for 0.1 μM final concentration; • 5 μL of 1× assay buffer was dispensed to column 24 (low control) and 5 μL 2× Factor XIa solution was dispensed to columns 1-23 (column 23 high control); • the plate was centrifuged with a “cover” plate at 500 rpm for 1 min • the plate was pre-incubated for 30 minutes at room temperature with plate covered; • 5 μL of 2×5Fam-[…]-K5Tamra peptide substrate was dispensed into the entire plate, columns 1-24; • the plate was centrifuged with a “cover” plate at 500 rpm for 1 min; • the plate was read monitoring fluorescence intensity on the BMG PHERAStar at room temperature, using fluorescence module 485 nm/520 nm.
Percent inhibition (IC50) curves were generated per compound tested, and data was analyzed using a 4-parameter logistic fit using GeneData Screener. The relative fluorescence unit (RFU) values were normalized to percent inhibition using the following equation: % inhibition=((HC−LC)−(compound−LC)/(HC−LC))*100
An 11-point dose response curve for the test compound(s) was generated using GENDATA to determine IC50 value based on the following equation: Y=Bottom+(Top−Bottom)/(1+10^((log IC50−X)*HillSlope))
Results listed in columns with […] designation were measured using endpoint reads where a single fluorescence reading was measured for each well at a 30 min timepoint.

human plasma kallikrein = human plasma kallikrein (Homo sapiens, UniProt P03952); experiment: Kallikrein inhibition FLINT assay with quenched AMC peptide substrate Z-Gly-Pro-Arg-AMC (end point EP or kinetic KIN reads); format: biochemical
Sequence of human plasma kallikrein (P03952 391-638 limits assumed): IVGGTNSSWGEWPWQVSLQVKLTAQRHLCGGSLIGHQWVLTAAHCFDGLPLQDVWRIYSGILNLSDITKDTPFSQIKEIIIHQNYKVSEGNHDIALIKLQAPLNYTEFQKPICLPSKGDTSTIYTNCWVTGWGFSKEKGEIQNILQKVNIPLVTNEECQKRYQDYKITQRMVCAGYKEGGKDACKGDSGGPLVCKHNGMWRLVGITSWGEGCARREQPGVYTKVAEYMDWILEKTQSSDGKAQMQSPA
Sequence of human plasma kallikrein (P03952 20-390 partner limits assumed): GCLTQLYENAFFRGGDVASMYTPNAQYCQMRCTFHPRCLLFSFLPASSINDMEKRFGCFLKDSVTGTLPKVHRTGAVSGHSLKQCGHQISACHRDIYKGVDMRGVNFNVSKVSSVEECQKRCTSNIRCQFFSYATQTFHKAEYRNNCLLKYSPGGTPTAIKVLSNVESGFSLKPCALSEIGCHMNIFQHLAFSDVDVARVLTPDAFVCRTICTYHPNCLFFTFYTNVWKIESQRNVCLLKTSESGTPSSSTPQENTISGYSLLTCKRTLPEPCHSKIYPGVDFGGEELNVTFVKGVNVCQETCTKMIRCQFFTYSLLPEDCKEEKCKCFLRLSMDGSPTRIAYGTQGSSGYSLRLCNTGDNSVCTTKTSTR
How it was run: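 Enzyme and compound were preincubated 30 min before adding 50 μM AMC substrate in pH 7.5 Tris/NaCl/CaCl2/BSA/CHAPS buffer. AMC release was read at 30 min endpoint or every 5 min.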

[1] = end point read at 30 min, read-out: Kallikrein (EP) IC50
[2] = kinetic reads at 5 min intervals over 30 min, read-out: Kallikrein (KIN) IC50

SMILES	IC50 (Factor XIa)	IC50 (human plasma kallikrein; [1])	IC50 (human plasma kallikrein; [2])
O=C(O)c1cccc(-c2cnn(C(CC3CC3)c3ccc(-c4cc(Cl)ccc4-n4cnnn4)c[n+]3[O-])c2)c1 (centres unmarked) [Example P3]	9.4 nM	98.2 nM	
COC(=O)Nc1ccc(-c2cnn(C(Cc3ccccc3)c3ccc(-c4cc(Cl)ccc4-n4cnnn4)c[n+]3[O-])c2)cc1 (centres unmarked) [Example P39]	3.8 nM	25.8 nM	
O=C(O)c1ccc(-c2cnn(C(Cc3ccc(F)cc3)c3ccc(-c4cc(Cl)ccc4OCC(F)(F)F)c[n+]3[O-])c2)cc1 (centres unmarked) [Example Q2]	41 nM	674 nM	
CN1CCc2cc(-c3cnn(C(CC4CC4)c4ccc(-c5cc(Cl)ccc5-n5cnnn5)c[n+]4[O-])c3)ccc2C1=O (centres unmarked) [Example P15]	55.6 nM	598 nM	
O=C(O)c1ccc(-c2cnn([C@H](CC3CC3)c3ccc(-c4cc(Cl)ccc4-n4cnnn4)c[n+]3[O-])c2)cc1 [Example P6]	2.1 nM	65.8 nM	85.2 nM
O=C(O)c1ccc(-c2cnn(C(CC3CC3)c3ccc(-c4c(-n5cnnn5)ccc(Cl)c4F)c[n+]3[O-])c2)cc1 (centres unmarked) [Example P9]	0.29 nM	37 nM	
Nc1ccc(-c2cnn(C(CC3CC3)c3ccc(-c4cc(Cl)ccc4-n4cnnn4)c[n+]3[O-])c2)c(Cl)n1 (single isomer, unassigned) [Example P49]	3.4 nM	79.2 nM	
Nc1ccc(-c2cnn(C(Cc3ccccc3)c3ccc(-c4cc(Cl)ccc4-n4cnnn4)c[n+]3[O-])c2)c(Cl)n1 (centres unmarked) [Example P50]	3.5 nM	46.5 nM	
O=C1OCc2cc(-c3cnn(C(CC4CC4)c4ccc(-c5cc(Cl)ccc5-n5cnnn5)c[n+]4[O-])c3)ccc21 (centres unmarked) [Example P16]	56.1 nM	401 nM	
CC(=O)Nc1ccc(-c2cnn(C(CC3CC3)c3ccc(-c4c(-n5cnnn5)ccc(Cl)c4F)c[n+]3[O-])c2)cc1 (centres unmarked) [Example P23]	4.4 nM	66.1 nM	
[O-][n+]1cc(-c2cc(Cl)ccc2-n2cnnn2)ccc1C(Cc1ccc(F)cc1)n1cc(-c2ccc(F)cc2)cn1 (centres unmarked) [Example P22]	10 nM	44.2 nM	
CN1Cc2cc(-c3cnn(C(CC4CC4)c4ccc(-c5cc(Cl)ccc5-n5cnnn5)c[n+]4[O-])c3)ccc2C1=O (centres unmarked) [Example P12]	71.7 nM	370 nM	
Nc1ccc(-c2cnn(C(CC3CC3)c3ccc(-c4cc(Cl)ccc4-n4cnnn4)c[n+]3[O-])c2)c(Cl)n1 (centres unmarked) [Example P19]	3.4 nM	135 nM	
COCCC(c1ccc(-c2c(-n3cnnn3)ccc(Cl)c2F)c[n+]1[O-])n1cc(-c2ccc(NC(=O)OC)cc2)cn1 (racemic) [Example P38]	3.2 nM	56 nM	
CC(C)(C)OCCC(c1ccc(-c2cc(Cl)ccc2-n2cnnn2)c[n+]1[O-])n1cc(-c2ccc(C(=O)O)cc2)cn1 (centres unmarked) [Example P8]	2.7 nM	329 nM	
Nc1ccc(-c2cnn(C(CC3CC3)c3ccc(-c4c(-n5cnnn5)ccc(Cl)c4F)c[n+]3[O-])c2)c[n+]1[O-] (centres unmarked) [Example P25]	9 nM	749 nM	
Nc1ccc(-c2cnn(C(CC3CC3)c3ccc(-c4c(-n5cnnn5)ccc(Cl)c4F)c[n+]3[O-])c2)cc1 (centres unmarked) [Example P21]	10.1 nM	166 nM	
CS(=O)(=O)NC(=O)c1ccc(-c2cnn(C(CC3CC3)c3ccc(-c4cc(Cl)ccc4-n4cnnn4)c[n+]3[O-])c2)cc1 (centres unmarked) [Example P18]	3.1 nM	396 nM	
O=C(O)c1ccc(-c2cnn(C(Cc3ccc(F)cc3)c3ccc(-c4cc(Cl)ccc4-n4cnnn4)c[n+]3[O-])c2)cc1 (centres unmarked) [Example P7]	0.8 nM	4.1 nM	1.3 nM
COC(=O)Nc1ccc(-c2cnn(C(Cc3ccccc3)c3ccc(-c4cc(Cl)c(F)cc4-n4cnnn4)c[n+]3[O-])c2)cc1 (centres unmarked) [Example P46]	21.5 nM	341 nM	
COC(=O)Nc1ccc(-c2cnn(C(Cc3ccc(F)cc3)c3ccc(-c4cc(Cl)ccc4C#N)c[n+]3[O-])c2)cc1 (centres unmarked) [Example Q1]	621 nM	355 nM	
